Data reported in patent US8765940B2 (priority 2009, dated 2014).

Molecular target: PI3Kδ (Homo sapiens (Human), UniProt O00329)
Type: biochemical
Conditions: PI3Kδ Alphascreen assay

Sequence of PI3Kδ (O00329 whole entry): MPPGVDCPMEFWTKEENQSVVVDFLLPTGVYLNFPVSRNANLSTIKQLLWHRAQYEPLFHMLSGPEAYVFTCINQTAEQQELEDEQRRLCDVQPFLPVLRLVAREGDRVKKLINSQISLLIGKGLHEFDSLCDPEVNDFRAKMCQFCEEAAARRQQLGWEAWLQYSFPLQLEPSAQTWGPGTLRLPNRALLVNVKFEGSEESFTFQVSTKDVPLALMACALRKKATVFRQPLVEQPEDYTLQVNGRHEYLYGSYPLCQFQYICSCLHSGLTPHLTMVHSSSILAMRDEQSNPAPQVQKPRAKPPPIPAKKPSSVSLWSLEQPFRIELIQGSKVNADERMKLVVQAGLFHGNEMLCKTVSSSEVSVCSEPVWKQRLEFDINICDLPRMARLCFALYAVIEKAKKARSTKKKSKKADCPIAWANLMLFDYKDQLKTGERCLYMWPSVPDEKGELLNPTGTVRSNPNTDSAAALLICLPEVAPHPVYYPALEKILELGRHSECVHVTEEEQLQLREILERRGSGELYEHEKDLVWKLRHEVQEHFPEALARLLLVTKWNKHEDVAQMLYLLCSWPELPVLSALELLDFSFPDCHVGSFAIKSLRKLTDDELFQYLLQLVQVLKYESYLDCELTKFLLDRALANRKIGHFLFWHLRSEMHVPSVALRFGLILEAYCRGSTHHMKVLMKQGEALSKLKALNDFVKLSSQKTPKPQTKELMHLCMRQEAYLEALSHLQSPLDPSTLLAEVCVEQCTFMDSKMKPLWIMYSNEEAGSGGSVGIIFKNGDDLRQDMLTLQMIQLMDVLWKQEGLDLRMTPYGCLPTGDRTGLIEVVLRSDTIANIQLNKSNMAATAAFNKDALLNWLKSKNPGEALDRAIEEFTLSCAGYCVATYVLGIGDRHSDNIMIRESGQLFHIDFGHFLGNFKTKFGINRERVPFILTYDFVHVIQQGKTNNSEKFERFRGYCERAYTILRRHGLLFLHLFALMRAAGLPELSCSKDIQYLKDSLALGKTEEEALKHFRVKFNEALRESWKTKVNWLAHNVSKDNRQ
Sequence of PI3Kδ (P27986 whole entry partner): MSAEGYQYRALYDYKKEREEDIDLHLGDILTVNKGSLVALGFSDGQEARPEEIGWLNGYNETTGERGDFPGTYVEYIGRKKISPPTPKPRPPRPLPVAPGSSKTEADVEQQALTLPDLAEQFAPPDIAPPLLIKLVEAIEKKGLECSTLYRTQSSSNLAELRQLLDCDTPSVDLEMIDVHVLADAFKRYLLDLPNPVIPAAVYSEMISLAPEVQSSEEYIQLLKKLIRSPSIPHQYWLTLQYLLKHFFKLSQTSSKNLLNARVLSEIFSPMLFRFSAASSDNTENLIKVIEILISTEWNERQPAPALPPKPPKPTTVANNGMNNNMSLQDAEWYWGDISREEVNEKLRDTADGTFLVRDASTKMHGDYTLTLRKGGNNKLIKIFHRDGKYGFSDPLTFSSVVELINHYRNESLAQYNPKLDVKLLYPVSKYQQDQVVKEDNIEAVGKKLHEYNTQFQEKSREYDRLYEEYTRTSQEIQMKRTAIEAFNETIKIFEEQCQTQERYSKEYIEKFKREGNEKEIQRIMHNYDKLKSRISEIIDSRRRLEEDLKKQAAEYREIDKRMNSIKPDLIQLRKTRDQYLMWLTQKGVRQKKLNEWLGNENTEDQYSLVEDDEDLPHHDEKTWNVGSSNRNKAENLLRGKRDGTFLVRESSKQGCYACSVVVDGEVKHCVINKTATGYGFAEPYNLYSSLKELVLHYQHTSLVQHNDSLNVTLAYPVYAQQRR

| Compound | Ki |
| --- | --- |
| Cc1nc2ccc(Cl)cc2c(-n2ccc3c(C#N)cc(-c4cn[nH]c4)cc32)c1C [1-(6-chloro-2,3-dimethyl-4-quinolinyl)-6-(1H-pyrazol-4-yl)-1H-indole-4-carbonitrile] | 1.08 µM |
| Cc1nc2ccc(Cl)cc2c(N2CC3(CCOCC3)c3ccc(N4CCOCC4)cc32)c1C [1-(6-chloro-2,3-dimethyl-4-quinolinyl)-6-(4-morpholinyl)-1,2,2′,3′,5′,6′-hexahydrospiro[indole-3,4′-pyran]] | 0.073 µM |
| Cc1nc2ccc(Cl)cc2c(-n2ccc3c(C#N)cc(N4CCOCC4)cc32)c1C [1-(6-chloro-2,3-dimethyl-4-quinolinyl)-6-(4-morpholinyl)-1H-indole-4-carbonitrile] | 0.153 µM |
| Cc1nc2ccc(Cl)cc2c(-n2ccc3c(C#N)cc(-c4ccncc4)cc32)c1C [1-(6-chloro-2,3-dimethyl-4-quinolinyl)-6-(4-pyridinyl)-1H-indole-4-carbonitrile] | 1.48 µM |
| COc1cc2nc(C)c(C)c(N3CC4(CCOCC4)c4ccc(C#N)cc43)c2cc1Cl [1-(6-chloro-7-methoxy-2,3-dimethyl-4-quinolinyl)-1,2,2′,3′,5′,6′-hexahydrospiro[indole-3,4′-pyran]-6-carbonitrile] | 7.5 µM |
| Cc1c(-c2ccccc2F)nc2cc(Cl)ccc2c1N1CC2(CCOCC2)c2ccc(N3CCOCC3)cc21 [1-(7-chloro-2-(2-fluorophenyl)-3-methyl-4-quinolinyl)-6-(4-morpholinyl)-1,2,2′,3′,5′,6′-hexahydrospiro[indole-3,4′-pyran]] | 0.57 µM |
| Cc1c(-c2ccccc2F)nc2cc(F)ccc2c1N1CC2(CCOCC2)c2ccc(N3CCOCC3)cc21 [1-(7-fluoro-2-(2-fluorophenyl)-3-methyl-4-quinolinyl)-6-(4-morpholinyl)-1,2,2′,3′,5′,6′-hexahydrospiro[indole-3,4′-pyran]] | 0.0254 µM |
| COc1cccc(-c2nc3cc(F)ccc3c(N3CC4(CCOCC4)c4ccc(N5CCOCC5)cc43)c2C)n1 [1-(7-fluoro-2-(6-methoxy-2-pyridinyl)-3-methyl-4-quinolinyl)-6-(4-morpholinyl)-1,2,2′,3′,5′,6′-hexahydrospiro[indole-3,4′-pyran]] | 0.0688 µM |
| Cc1c(-c2ccccc2S(C)(=O)=O)nc2cc(F)ccc2c1N1CC2(CCOCC2)c2ccc(N3CCOCC3)cc21 [1-(7-fluoro-3-methyl-2-(2-(methylsulfonyl)phenyl)-4-quinolinyl)-6-(4-morpholinyl)-1,2,2′,3′,5′,6′-hexahydrospiro[indole-3,4′-pyran]] | 0.0102 µM |
| Cc1ncccc1-c1nc2cc(F)ccc2c(N2CC3(CCOCC3)c3ccc(N4CCOCC4)cc32)c1C [1-(7-fluoro-3-methyl-2-(2-methyl-3-pyridinyl)-4-quinolinyl)-6-(4-morpholinyl)-1,2,2′,3′,5′,6′-hexahydrospiro[indole-3,4′-pyran]] | 0.0145 µM |
| Cc1c(-c2ccccn2)nc2cc(F)ccc2c1N1CC(C)(C)c2nc(C#N)c(N3CCOCC3)cc21 [1-(7-fluoro-3-methyl-2-(2-pyridinyl)-4-quinolinyl)-3,3-dimethyl-6-(4-morpholinyl)-2,3-dihydro-1H-pyrrolo[3,2-b]pyridine-5-carbonitrile] | 0.0495 µM |
| Cc1c(-c2ccccn2)nc2cc(F)ccc2c1N1CC2(CCOCC2)c2ccc(N3CCOCC3)cc21 [1-(7-fluoro-3-methyl-2-(2-pyridinyl)-4-quinolinyl)-6-(4-morpholinyl)-1,2,2′,3′,5′,6′-hexahydrospiro[indole-3,4′-pyran]] | 0.0182 µM |
| Cc1c(-c2ccccn2)nc2cc(F)ccc2c1N1CC2(CCS(=O)(=O)CC2)c2ccc(N3CCOCC3)cc21 [1-(7-fluoro-3-methyl-2-(2-pyridinyl)-4-quinolinyl)-6-(4-morpholinyl)-1,2,2′,3′,5′,6′-hexahydrospiro[indole-3,4′-thiopyran]-1′,1′-dioxide] | 0.0644 µM |
| Cc1c(-c2ccccn2)nc2cc(F)ccc2c1N1CC2(CS(=O)(=O)C2)c2ccc(N3CCOCC3)cc21 [1-(7-fluoro-3-methyl-2-(2-pyridinyl)-4-quinolinyl)-6-(4-morpholinyl)-1,2-dihydrospiro[indole-3,3′-thietane] 1′,1′-dioxide] | 0.0805 µM |
| Cc1c(-c2cccnc2)nc2cc(F)ccc2c1N1CC2(CCOCC2)c2ccc(N3CCOCC3)cc21 [1-(7-fluoro-3-methyl-2-(3-pyridinyl)-4-quinolinyl)-6-(4-morpholinyl)-1,2,2′,3′,5′,6′-hexahydrospiro[indole-3,4′-pyran]] | 0.0475 µM |
| Cc1c(N2CCCCC2=O)nc2cc(F)ccc2c1N1CC2(CCOCC2)c2ncc(N3CCOCC3)cc21 [1-(7-fluoro-3-methyl-4-(6′-(4-morpholinyl)-2,3,5,6-tetrahydrospiro[pyran-4,3′-pyrrolo[3,2-b]pyridin]-1′(2′H)-yl)-2-quinolinyl)-2-piperidinone] | 0.00162 µM |
| Cc1c(N2CCOC(C)(C)C2)nc2cc(F)cc(F)c2c1N1CC2(CCOCC2)c2ncc(N3CCOCC3)cc21 [1′-(2-(2,2-dimethyl-4-morpholinyl)-5,7-difluoro-3-methyl-4-quinolinyl)-6′-(4-morpholinyl)-1′,2,2′,3,5,6-hexahydrospiro[pyran-4,3′-pyrrolo[3,2-b]pyridine]] | 0.0054 µM |
| Cc1c(-c2cc(F)cc(F)c2)nc2cnccc2c1N1CC2(CCOCC2)c2ncc(N3CCOCC3)cc21 [1′-(2-(3,5-difluorophenyl)-3-methyl-1,7-naphthyridin-4-yl)-6′-(4-morpholinyl)-1′,2,2′,3,5,6-hexahydrospiro[pyran-4,3′-pyrrolo[3,2-b]pyridine]] | 0.0134 µM |
| Cc1c(-c2cc(F)cc(F)c2)nc2ncccc2c1N1CC2(CCOCC2)c2ncc(N3CCOCC3)cc21 [1′-(2-(3,5-difluorophenyl)-3-methyl-1,8-naphthyridin-4-yl)-6′-(4-morpholinyl)-1′,2,2′,3,5,6-hexahydrospiro[pyran-4,3′-pyrrolo[3,2-b]pyridine]] | 0.0282 µM |
| Cc1cc(C)cc(-c2nc3cc(F)ccc3c(N3CC4(CCOCC4)c4ncc(N5CCOCC5)cc43)c2C)c1 [1′-(2-(3,5-dimethylphenyl)-7-fluoro-3-methyl-4-quinolinyl)-6′-(4-morpholinyl)-1′,2,2′,3,5,6-hexahydrospiro[pyran-4,3′-pyrrolo[3,2-b]pyridine]] | 0.0121 µM |
| Cc1c(-c2cccc(F)c2)nc2ncccc2c1N1CC2(CCOCC2)c2ncc(N3CCOCC3)cc21 [1′-(2-(3-fluorophenyl)-3-methyl-1,8-naphthyridin-4-yl)-6′-(4-morpholinyl)-1′,2,2′,3,5,6-hexahydrospiro[pyran-4,3′-pyrrolo[3,2-b]pyridine]] | 0.0278 µM |
| Cc1c(-c2ccccn2)nc2cnccc2c1N1CC2(CCOCC2)c2ncc(N3CCOCC3)cc21 [1′-(3-methyl-2-(2-pyridinyl)-1,7-naphthyridin-4-yl)-6′-(4-morpholinyl)-1′,2,2′,3,5,6-hexahydrospiro[pyran-4,3′-pyrrolo[3,2-b]pyridine]] | 0.0307 µM |
| Cc1c(-c2ccccn2)nc2ncccc2c1N1CC2(CCOCC2)c2ncc(N3CCOCC3)cc21 [1′-(3-methyl-2-(2-pyridinyl)-1,8-naphthyridin-4-yl)-6′-(4-morpholinyl)-1′,2,2′,3,5,6-hexahydrospiro[pyran-4,3′-pyrrolo[3,2-b]pyridine]] | 0.0659 µM |
| Cc1c(-c2ccccc2)nc2ncccc2c1N1CC2(CCOCC2)c2ncc(N3CCOCC3)cc21 [1′-(3-methyl-2-phenyl-1,8-naphthyridin-4-yl)-6′-(4-morpholinyl)-1′,2,2′,3,5,6-hexahydrospiro[pyran-4,3′-pyrrolo[3,2-b]pyridine]] | 0.0226 µM |
